Laboratory results as given in patent US20130344106A1, “Methods and Compositions for Improving Immune Response by a Nutraceutical Antioxidant” (priority 2008, published 2013).
“Also recorded” adds a separate entry of the source.

What was measured:
BM-DCs from old mice = assay: CHS response by adoptive transfer of DNBS-pulsed BM-DCs treated ex vivo; format: in vivo, mouse; details: DNFB challenge of young recipients
Method: For sensitization (day 0), 0.5×10^6 DNBS-treated DCs were injected subcutaneously with 100 μL of saline into the flanks of recipient mice. Five days later, mice were challenged by means of DNFB application to the ear. Mice injected with the same number of unmodified DCs or mock treated and challenged with vehicle alone served as negative controls.

OXA-treated BALB/c mice = details: Särnstrand et al.; cited from earlier work
BALB/c mice = details: orally administered 1.6 g/kg, Senaldi et al.; cited from earlier work
cellular proteins = details: NAC at the time of TNCB sensitization; Bruchhausen et al.; cited from earlier work
CD11c+ BM-DCs = assay: MBB staining and flow cytometry of cellular thiol in BM-DCs; details: P<0.05
[1] = system: old female C57BL/6 (B6) mice; details: SFN gavage
Excerpt: (§1) Young (2-4 months) and old (19-22 mouths) female C57BL/6 (B6) mice were obtained from the Jackson Laboratory and the National Institute of Aging colony (Bethesda, Md.), respectively. Nrf2^+/+ and nrf2^−/− mice, which were initially obtained from Dr. Y. Kan (Chan and Kan, Proc Natl Acad Sci USA, 96:1231-6 (1997)), were backcrossed onto a C57BL/6 background for 7 generations.
Oxazalone (OXA; 3%), dissolved in 100% ethanol, was applied on the shaved mouse abdomen on day 0. Control animals were exposed to vehicle alone. Six days after sensitization, mice were challenged on both sides of both ears by means of epicutaneous application of 20 μL of a 1% OXA solution (Gaspari and Katz, Current Protocols in immunology, John Wiley & Sons (Hoboken, N.J., 2003)). 2,4-Dinitro-1-fluambenzene (DNFB) sensitization was accomplished by the application of 0.5% of the chemical dissolved in 4:1 acetone/olive oil onto the shaved abdomen (days 0 and 1). On day 5, mice were challenged by means of epicutaneous application of 0.2% DNFB on both ears. Ear thickness was measured before and 24 and 48 hours after challenge by using a dial thickness gauge (Mitutoyo, Japan). Mice were killed 48 hours after challenge, and ear tissues were removed for RNA extraction and cytokine message expression, as well as for hematoxylin and eosin staining. […]

IFN-γ mRNA = details: old mice; SFN gavage; 48 hours after DNFB challenge
Method: (§2) Oxazalone (OXA; 3%), dissolved in 100% ethanol, was applied on the shaved mouse abdomen on day 0. Control animals were exposed to vehicle alone. Six days after sensitization, mice were challenged on both sides of both ears by means of epicutaneous application of 20 μL of a 1% OXA solution (Gaspari and Katz, Current Protocols in immunology, John Wiley & Sons (Hoboken, N.J., 2003)). 2,4-Dinitro-1-fluambenzene (DNFB) sensitization was accomplished by the application of 0.5% of the chemical dissolved in 4:1 acetone/olive oil onto the shaved abdomen (days 0 and 1). On day 5, mice were challenged by means of epicutaneous application of 0.2% DNFB on both ears. Ear thickness was measured before and 24 and 48 hours after challenge by using a dial thickness gauge (Mitutoyo, Japan). Mice were killed 48 hours after challenge, and ear tissues were removed for RNA extraction and cytokine message expression, as well as for hematoxylin and eosin staining.
(§3) Total RNA was extracted from DCs or tissues by using the RNeasy Mini Kit (Qiagen, Inc, Valencia, Calif.), according to the manufacturer's recommendations. Contaminating DNA was removed with a DNA-free kit (Ambion, Inc, Austin, Tex.). Total RNA was spectrophotometrically quantitated. A 1 μg RNA sample was reverse transcribed by using the iScriptTMcDNA Synthesis Kit (Bio-Rad Laboratories, Hercules, Calif.). The cDNA templates were stored at −40° C.
(§4) PCR was carried out with an iQTM SYBR Green Supermix (Bio-Rad Laboratories) by using an iCycler (Bio-Rad Laboratories), according to the manufacturer's instructions. The sequences for the primers for IFN-γ, IL-4, T-bet, heme oxygenase 1, Nrf2, NQO1, glutathione S-transferase, GCLS, GPx, and β-actin are summarized in Table 1. The final PCR mixture contained 1 μL of cDNA template and 400 nM of the forward and reverse primers in a final volume of 25 μL. […]
(§5) IFN-γ and IL-4 message levels were measured in the ear tissues that were taken 48 hours after challenge to determine whether the induction of the CHS response is accompanied by polarized T cell differentiation.

IL-4 mRNA = details: old mice; SFN gavage; 48 hours after DNFB challenge
Method: as §2, §3, §4, §5

T-bet mRNA = details: old versus young sensitized animals; SFN gavage; DNFB challenge
Method: as §2, §3, §4, §5

GATA-3 = details: SFN gavage; DNFB challenge
Method: as §5

[2] = system: p2Es (NQO1, glutathione S-transferase, γ-GCLS, and GPx) mRNA; details: SFN administration versus livers of control animals
Method: (§6) SFN (9 μmol/d per mouse) in 0.2 mL, of corn oil was administered by means of gavage on consecutive days. The control group received corn oil alone. Pretreatment with SFN or corn oil commenced 5 days before and was carried through until the performance of the antigen challenge (i.e., 11 days total).
as §3
as §4, with “μL. Samples were run concurrently with a standard curve prepared from the PCR products. Serial dilutions were performed to obtain appropriate template concentrations.” for “μL.”

[3] = SFN administration by gavage
Method: as §1, §6

NQO1 mRNA = details: BM-DCs from old animals; SFN 5 μmol/L for 24 hours; P<0.001
Method: (§7) FIG. 9. […] A. Total RNA was extracted from CD11c^+ BM-DCs to perform real-time PCR for p2E.
as §3
(§8) PCR was carried out with an iQTM SYBR Green Supermix (Bio-Rad Laboratories) by using an iCycler (Bio-Rad Laboratories), according to the manufacturer's instructions. The sequences for the primers for IFN-γ, IL-4, T-bet, heme oxygenase 1, Nrf2, NQO1, glutathione S-transferase, GCLS, GPx, and β-actin are summarized in Table 1. The final PCR mixture contained 1 μL of cDNA template and 400 nM of the forward and reverse primers in a final volume of 25 μL. Samples were run concurrently with a standard curve prepared from the PCR products. Serial dilutions were performed to obtain appropriate template concentrations. B-Actin was used as a reference gene for the recovery of RNA, as well as reverse transcription efficiency. Melting curve analysis was used to confirm specific replicon formation.

heme oxygenase 1 mRNA = details: BM-DCs from old animals; SFN 5 μmol/L for 24 hours; P<0.05
Method: as §7, §3, §8

γ-GCLS mRNA = details: BM-DCs from old animals; SFN 5 μmol/L for 24 hours; P<0.05
Method: as §7, §3, §8

[4] = system: Nrf2-mediated phase II enzyme (p2E) gene expression; details: absent in Nrf2-deficient animals; recent studies; cited from earlier work
Nrf2 = details: old rats; cited from earlier work

**Q.** With CC(=O)N[C@@H](CS)C(=O)O [NAC, N-acetylcysteine] as the molecule, how does the “CHS response in recipients of DNBS-pulsed DCs from old animals” value (BM-DCs from old mice; ex vivo NAC treatment of BM-DCs (20 mM for 1 hour), washed) read?
**A.** restored the CHS response; also recorded: increases the CHS response; also recorded: reverses the age-related decrease in the CHS response

**Q.** And the ear thickness (OXA-treated BALB/c mice)?
**A.** dose-dependent increase

**Q.** What about the TNCB response (BALB/c mice) of the same molecule?
**A.** reduced the TNCB response

**Q.** And the “binding of the contact sensitizer TNCB to cellular proteins” value (cellular proteins)?
**A.** block the binding

**Q.** And the “increase in cellular thiol content (MBB staining)” value (CD11c+ BM-DCs; BM-DCs, NAC exposure (FIG. 8: 20 mmol/L for 24 hours))?
**A.** 25%

**Q.** For C[S+]([O-])CCCCN=C=S (centres unmarked) [SFN, sulforaphane], which “ear-swelling response in nonsensitized (control) animals” value ([1]; nonsensitized control animals) is on record?
**A.** no effect

**Q.** What about the “decrease in lymphocyte infiltration and intercellular edema in ear (hematoxylin and eosin)” value ([1]; old mice, ear histology 48 hours after challenge) of the same molecule?
**A.** could be reversed

**Q.** And the “IFN-γ message level in ear tissue” value (IFN-γ mRNA)?
**A.** significantly increased

**Q.** What about the “IL-4 message level in ear tissue” value (IL-4 mRNA) of the same molecule?
**A.** not significantly affected

**Q.** What about the “T-bet message level in ear tissue” value (T-bet mRNA) of the same molecule?
**A.** prevented this decrease to a significant degree

**Q.** And the “expression of GATA-3” value (GATA-3)?
**A.** Neither aging nor SFN treatment had an effect

**Q.** What about the “p2E mRNA levels in liver (NQO1, glutathione S-transferase, γ-GCLS, GPx)” value [2] of the same molecule?
**A.** message levels for 3 of the 4 genes were increased

**Q.** And the “effects on overall well-being or body weight” value [3]?
**A.** Neither the CHS procedure nor SFN administration had any effects

**Q.** And the “CHS response in recipients of DNBS-pulsed DCs from old animals” value (BM-DCs from old mice; ex vivo SFN treatment of BM-DCs (5 μM for 24 hours))?
**A.** could restore the CHS response; also recorded: reverses the age-related decrease in the CHS response

**Q.** And the “NQO1 mRNA level” value (NQO1 mRNA)?
**A.** significant upregulation

**Q.** What about the “heme oxygenase 1 mRNA level” value (heme oxygenase 1 mRNA) of the same molecule?
**A.** significant upregulation

**Q.** What about the “γ-GCLS mRNA level” value (γ-GCLS mRNA) of the same molecule?
**A.** significant upregulation

**Q.** What about the “Nrf2-mediated phase II enzyme (p2E) gene expression” value [4] of the same molecule?
**A.** significantly activates

**Q.** What about the “increase in cellular thiol levels (MBB staining)” value (CD11c+ BM-DCs; BM-DCs from old animals, SFN 5 μmol/L for 24 hours) of the same molecule?
**A.** 15%

**Q.** For O=C(O)CCCCC1CCSS1 (stereo not drawn) [α-lipoic acid], which “nuclear Nrf2 levels, γ-CLC expression and GSH production” value (Nrf2) is on record?
**A.** increase nuclear Nrf2 levels in parallel with increased γ-CLC expression and GSH production
